These results are taken from US11384078B2, “5,6-fused-bicyclic compounds and compositions for the treatment of parasitic diseases” (NOVARTIS AG, priority 2017, dated 2022).

Read-outs that look alike come from different tables or passages of the source. A value given as a limit tells only on which side of the number the result lay.

Holding throughout (assay type): cell-based
The test system of test [1] is Leishmania donovani axenic amastigote. In words: In vitro assay for growth inhibition of Leishmania donovani axenic amastigote (Cell TiterGlo luminescence). Conditions: Leishmania donovani, L. donovani axenic amastigotes in vitro; read-out: L. donovani amastigotes EC50. Summed up:
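Axenic L. donovani amastigotes (9600/well) grown at 37 °C, 5% CO2 in supplemented RPMI 1640, pH 5.5, with compound added from DMSO. After two days, viability read by CellTiter-Glo luminescence against DMSO and control-compound wells.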
For orientation: Cellular ATP, detected with luciferase, serves as a proxy for viable cell number.

The test system of test [2] is L. donovani HU3 strain in mouse peritoneal macrophages. Put plainly: Assay for inhibition of parasitemia of Leishmania donovani in mouse macrophages (SYBR Green nuclei count, high-content imaging). The conditions noted are these: Leishmania donovani, Peritoneal macrophage, read-out: L. donovani in Mouse Macrophages EC50. The text has this:
Assay for Inhibition of Parasitemia of Leishmania donovani in Mouse Macrophages
The assay measures the increase in the parasite number in the assayed plate well using a DNA intercalating dye, SYBR Green I® dye (INVITROGEN) to stain Leishmania cell nuclei. L. donovani HU3 strain is propagated by infecting BALB/c mice through tail vein injection with 10^7 Leishmania parasites. Infected mice are allowed to develop infection during 9-11 weeks post-infection. During this time, the parasites accumulate in the infected mouse spleens to large numbers, and the infected mice serve as the source of parasites for the in vitro measurement of compound efficacies. To assay a compound for anti-leishmanial activity, peritoneal macrophages isolated from non-infected BALB/c mice are seeded into 384-well plates at density 2×10^4 macrophages per well in […] of medium (RPM11640, 10% fetal serum albumin, 10 mM HEPES, 1 mM sodium pyruvate, 1% Pen/Strep). Subsequently, the seeded plates are placed into an incubator set to maintain 37° C. temperature and atmosphere with 5% CO2.
The next day, Leishmania parasites are isolated from the spleens of mice infected for 9-11 weeks and 4×10^5 isolated parasites in […] of the above media are added to each plate well. Plates are then returned into incubators and infection is allowed to proceed for 24 hours. After the infection of macrophages is completed, […] of compounds of the invention in the above medium, which also contains 5% DMSO, are added to plate wells containing infected macrophages. At the same time control compounds (miltefosine and amphotericin B) and DMSO are added to plates to serve as the positive and negative controls, respectively. After the compound addition, the plates are returned into incubator and cells infected with parasites are cultured for 5 days. At the end of cultivation, […] of 8% paraformaldehyde is added to plate wells and incubated for 15 min at room temperature. Following the incubation, the paraformaldehyde from plate wells is aspirated, and […] of PBS containing 0.2% Triton X-100 is added to wells. After 15 min incubation, the solution is aspirated from wells again, and replaced with Sybr® Green Dye solution in PBS (1:125,000 dilution). Infected cells are imaged with Evotec Opera high-content microscope, and the number of parasites in well is determined by counting parasite nuclei visualized by staining with Sybr® Green dye.

Test [3] has as its system Trypanosoma cruzi amastigotes cultured in 3T3 fibroblast cells. In words: Assay for growth inhibition of kinetoplastid parasite Trypanosoma cruzi (beta-galactosidase Tulahuen strain, CPRG readout). The conditions noted are these: Trypanosoma cruzi, T. cruzi amastigotes in 3T3 fibroblast cells, read-out: Buckner infectious T. cruzi EC50. Summed up: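 3T3 fibroblasts (1,000 cells/well) plated overnight, treated with compound in DMSO, then infected with 10,000 Lac-Z-expressing Tulahuen trypomastigotes. After 6 days, 0.6 mM CPRG with 0.6% NP-40 added for 2 h at room temperature; absorbance gives relative intracellular amastigote numbers. Benznidazole and nifurtimox serve as positive controls.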

In test [4] the test system is Trypanosoma brucei brucei (Lister 427) strain. In words: Assay for growth inhibition against Trypanosoma brucei brucei (Cell TiterGlo ATP luminescence). The conditions noted are these: T. brucei brucei (Lister 427), read-out: T. Brucei (HAT) EC50. The method in brief:
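T. b. brucei Lister 427 grown in HMI-9 with 10% FBS and 10% serum plus, seeded at 10,000 parasites/mL with 10-point threefold compound dilutions in duplicate, 37 °C for 2 days. Viability read as ATP luminescence 30 min after Cell TiterGlo; IC50 versus untreated controls.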

[5] abbreviates: L. donovani in mouse peritoneal macrophages.

For the compound `CC(C)c1cnc2nn(-c3cc(NC(=O)C4(C(F)(F)F)CC4)ccc3F)cc2c1` [Compound 209, N-{4-fluoro-3-[5-(propan-2-yl)-2H-pyrazolo[3,4-b]pyridin-2-yl]phenyl}-1-(trifluoromethyl)cyclopropane-1-carboxamide], the concentration for a half-maximal effect (EC50) (in general, the concentration that produces a half-maximal response) is 25000 nM in test [1], 381 nM in test [2] (setting [5]), 5090 nM in test [3] (Fibroblast) and 6540 nM in test [4] (Trypanosoma brucei).
Consider `CC(C)Cc1cnc2nn(-c3cc(NC(=O)N4CCC4)ccc3F)cc2c1` [Compound 7, N-(4-fluoro-3-(5-isobutyl-2H-pyrazolo[3,4-b]pyridin-2-yl)phenyl)azetidine-1-carboxamide], for which the 50% effective concentration (EC50) was 7.7 nM in test [1], 4 nM in test [2] (setting [5]), 1.6 nM in test [3] (Fibroblast) and less than 23 nM in test [4] (Trypanosoma brucei).
Regarding `O=C(Nc1ccc(F)c(-n2cc3cc(-c4ccccn4)cnc3n2)c1)c1ccco1` [Compound 64, N-{4-fluoro-3-[5-(pyridin-2-yl)-2H-pyrazolo[3,4-b]pyridin-2-yl]phenyl}furan-2-carboxamide], the EC50 in test [1] is 2.2 nM; in test [2] (setting [5]), 3.9 nM; in test [3] (Fibroblast), 1 nM; in test [4] (Trypanosoma brucei), less than 23 nM.
Regarding `O=C(Nc1ccc(F)c(-n2cc3cc(CC(F)(F)F)cnc3n2)c1)N1CCC1` [Compound 164, N-{4-fluoro-3-[5-(2,2,2-trifluoroethyl)-2H-pyrazolo[3,4-b]pyridin-2-yl]phenyl}azetidine-1-carboxamide], the EC50 is 6 nM in test [1], 10 nM in test [2] (setting [5]), 1.7 nM in test [3] (Fibroblast) and less than 23 nM in test [4] (Trypanosoma brucei).
With `[2H]C([2H])([2H])N(c1cnc2nn(-c3cc(NC(=O)N4CCC4)ccc3F)cc2c1)C([2H])([2H])[2H]` [Compound 306, N-(3-{5-[bis(^2H3)methylamino]-2H-pyrazolo[3,4-b]pyridin-2-yl}-4-fluorophenyl)azetidine-1-carboxamide], the EC50 in test [1] stood at 90 nM; in test [2] (setting [5]), 4 nM; in test [3] (Fibroblast) it was 2 nM; in test [4] (Trypanosoma brucei), 5 nM.
For `O=C(Nc1ccc(F)c(-n2cc3cc(Br)cnc3n2)c1)N1CC(F)(F)C1` [Compound 125, N-(3-(5-bromo-2H-pyrazolo[3,4-b]pyridin-2-yl)-4-fluorophenyl)-3,3-difluoroazetidine-1-carboxamide], the 50% effective concentration (EC50) is 44 nM in test [1], 31 nM in test [2], 34 nM in test [3] and less than 23 nM in test [4] (Trypanosoma brucei).
Regarding `Cc1cc(C(=O)Nc2ccc(F)c(-n3cc4cc(C(C)C)cnc4n3)c2)c(C)o1` [Compound 72, N-{4-fluoro-3-[5-(propan-2-yl)-2H-pyrazolo[3,4-b]pyridin-2-yl]phenyl}-2,5-dimethylfuran-3-carboxamide], the half-maximal effective concentration (EC50) in test [1] is 2100 nM; in test [2] (setting [5]) it was 1400 nM; in test [3] (Fibroblast), 180 nM; in test [4] (Trypanosoma brucei), 420 nM.
Regarding `Cc1nc(CO)c(C(=O)Nc2ccc(F)c(-n3cc4cc(-c5ncccc5C)cnc4n3)c2)o1` [Compound 277, N-(4-fluoro-3-(5-(3-methylpyridin-2-yl)-2H-pyrazolo[3,4-b]pyridin-2-yl)phenyl)-4-(hydroxymethyl)-2-methyloxazole-5-carboxamide], the half-maximal effective concentration (EC50) stood at 40 nM in test [1], 138 nM in test [2] (setting [5]), 144 nM in test [3] (Fibroblast) and 82 nM in test [4] (Trypanosoma brucei).
The matching figures for `O=C(Nc1ccc(F)c(-n2cc3cc(N4CC5(CSC5)C4)cnc3n2)c1)N1CC(F)C1` [Compound 239, 3-fluoro-N-[4-fluoro-3-(5-{2-thia-6-azaspiro[3.3]heptan-6-yl}-2H-pyrazolo[3,4-b]pyridin-2-yl)phenyl}azetidine-1-carboxamide]: 1760 nM, 9 nM, 10 nM and 5 nM.
Regarding `Cc1nc(C)c(C(=O)Nc2ccc(F)c(-n3cc4cc(C5CCOCC5)cnc4n3)c2)o1` [Compound 169, N-{4-fluoro-3-[5-(oxan-4-yl)-2H-pyrazolo[3,4-b]pyridin-2-yl]phenyl}-2,4-dimethyl-1,3-oxazole-5-carboxamide], the concentration giving a half-maximal response (EC50) was 10 nM in test [1], 30 nM in test [2] (setting [5]), 14 nM in test [3] (Fibroblast) and less than 23 nM in test [4] (Trypanosoma brucei).
In the case of `Cc1cccnc1-c1cnc2nn(-c3cc(NC(=O)N4CCC4)ccc3F)cc2c1` [Compound 3, N-(4-fluoro-3-(5-(3-methylpyridin-2-yl)-2H-pyrazolo[3,4-b]pyridin-2-yl)phenyl)azetidine-1-carboxamide], the EC50 in test [1] was 1.8 nM; in test [2] (setting [5]), 2 nM; in test [3] (Fibroblast) it was 1.6 nM; in test [4] (Trypanosoma brucei), less than 23 nM.
The matching figures for `O=C(Nc1ccc(F)c(-n2cc3cc(-n4ccnc4)cnc3n2)c1)N1CC(F)C1` [Compound 323, 3-fluoro-N-{4-fluoro-3-[5-(1H-imidazol-1-yl)-2H-pyrazolo[3,4-b]pyridin-2-yl]phenyl}azetidine-1-carboxamide]: 12 nM, 113 nM, 62 nM and 15 nM.
Consider `Cc1nc(C(=O)Nc2ccc(F)c(-n3cc4cc(C(C)C)cnc4n3)c2)c(C(F)(F)F)o1` [Compound 68, N-{4-fluoro-3-[5-(propan-2-yl)-2H-pyrazolo[3,4-b]pyridin-2-yl]phenyl}-2-methyl-5-(trifluoromethyl)-1,3-oxazole-4-carboxamide], for which the EC50 in test [1] turned out to be 2200 nM; in test [2] (setting [5]), 2800 nM; in test [3] (Fibroblast), 160 nM; in test [4] (Trypanosoma brucei), 510 nM.
With `CC(C)c1cnc2nn(-c3cc(NC(=O)CCC4CC4)ccc3F)cc2c1` [Compound 215, 3-cyclopropyl-N-{4-fluoro-3-[5-(propan-2-yl)-2H-pyrazolo[3,4-b]pyridin-2-yl]phenyl}propanamide], the EC50 in test [1] worked out at 4700 nM; in test [2] (setting [5]), 2980 nM; in test [3] (Fibroblast) it was 738 nM; in test [4] (Trypanosoma brucei), 947 nM.
The matching figures for `O=C(Nc1ccnc(-n2cc3cc(Br)cnc3n2)c1)N1CC[C@@H](F)C1` [Compound 340, (3R)-N-(2-{5-bromo-2H-pyrazolo[3,4-b]pyridin-2-yl}pyridin-4-yl)-3-fluoropyrrolidine-1-carboxamide]: 225 nM, 87 nM, 61 nM and 35 nM.
As to `COC1CN(c2cnc3nn(-c4cc(NC(=O)N5CC(F)C5)ccc4F)cc3c2)C1` [Compound 205, 3-fluoro-N-{4-fluoro-3-[5-(3-methoxyazetidin-1-yl)-2H-pyrazolo[3,4-b]pyridin-2-yl]phenyl}azetidine-1-carboxamide], the half-maximal effective concentration (EC50) amounted to 197 nM in test [1], 11 nM in test [2] (setting [5]), 15 nM in test [3] (Fibroblast) and 5 nM in test [4] (Trypanosoma brucei).
Turning to `Cc1nc(C)c(C(=O)Nc2ccc(F)c(-n3cc4cc(C(C)C)cnc4n3)c2)o1` [Compound 351, N-(4-fluoro-3-(5-isopropyl-2H-pyrazolo[3,4-b]pyridin-2-yl)phenyl)-2,4-dimethyloxazole-5-carboxamide], the EC50 turned out to be 49 nM in test [1], 24 nM in test [2] (setting [5]), 15 nM in test [3] (Fibroblast) and 31 nM in test [4] (Trypanosoma brucei).
As to `O=C(Nc1ccc(F)c(-n2cc3cc(N4CCC45COC5)cnc3n2)c1)N1CC(F)C1` [Compound 231, 3-fluoro-N-{4-fluoro-3-(5-{6-oxa-1-azaspiro[3.3]heptan-1-yl}-2H-pyrazolo[3,4-b]pyridin-2-yl)phenyl}azetidine-1-carboxamide], the EC50 in test [1] stood at 34 nM; in test [2] (setting [5]), 113 nM; in test [3] (Fibroblast) it was 126 nM; in test [4] it was 6 nM.
